Data reported in US4224329A, “2-Substitute d-trans-5-aryl-2,3,4,4a,5,9b-hexahydro-1H-pyrido[4,3-b]indoles” (Pfizer Inc., priority 1979, dated 1980).
Structures can show the parent of a compound that is named as a salt.

Columns and labels:
Amphetamine Stereotypy = assay: Antagonism of Amphetamine Stereotypy in Rats (ED50 for blocking characteristic amphetamine cage movement); type: in vivo; conditions: s.c., hydrochloride; for ED50, 1 Hr.: 60 min; for ED50, 24 Hrs.: 1440 min
Experimental: The effects of the compounds of the present invention on prominent amphetamine-induced symptoms were studied in rats by a rating scale modeled after the one reported by Quinton and Halliwell, and Weissman. Groups of five rats were placed in a covered plastic cage measuring approximately 26 cm.×42 cm.×16 cm. […] They were then treated 1, 5 and 24 hrs. later with d-amphetamine sulfate, 5 mg./kg. intraperitoneally (i.p.). […] On the basis of dose-response data after amphetamine it was possible to determine the effective dose of the compound necessary to antagonize or block the characteristic amphetamine behavior of cage movement for fifty percent of the rats tested (ED50). The time of rating chosen coincides with the peak action of amphetamine which is 60-80 min. after treatment with this agent.
Employing the above-described procedure, the following 4a,9b-trans compounds were tested for their ability to block the behavior effects of amphetamine, the results being reported as the ED50 in mg./kg. at the indicated times: [drawing 30]
A. The following results were obtained on the mixture of diastereomers for those compounds wherein R contains a secondary alcohol group and on the single diastereomer of the other 4a, 9b-trans hexahydro-pyrido-indoles.
B. The results of tests in which compounds of the invention reported in Part A, above are compared with the corresponding δ-substituted-5-aryl-1,2,3,4-tetrahydropyrido[4,3-b]indoles of U.S. Pat. No. 4,001,263 are summarized below. For each pair the results obtained on the prior art compound (a) are given first and the results for the compound of the invention (b) are given second. Where indicated the test compound was also administered orally (p.o.) and tests were carried out for 48 hours.
C. […] In each case the compounds are of the formula
The tests were carried out for 72 hours.

dopamine receptors = dopamine receptors (Rattus norvegicus, UniProt P61169); assay: Inhibition of 3H-Spiroperidol Binding to Dopamine Receptors (rat corpus striatum); set-up: species or system rats (Sprague-Dawley CD males); conditions: 0.5 nM 3H-spiroperidol, 10 minutes at 37° C.
[1] = Part C, isomers of Examples 13 and 14
[2] = Part D, enantiomers by synthesis of Example 21

Chain of dopamine receptors (P61169 whole entry): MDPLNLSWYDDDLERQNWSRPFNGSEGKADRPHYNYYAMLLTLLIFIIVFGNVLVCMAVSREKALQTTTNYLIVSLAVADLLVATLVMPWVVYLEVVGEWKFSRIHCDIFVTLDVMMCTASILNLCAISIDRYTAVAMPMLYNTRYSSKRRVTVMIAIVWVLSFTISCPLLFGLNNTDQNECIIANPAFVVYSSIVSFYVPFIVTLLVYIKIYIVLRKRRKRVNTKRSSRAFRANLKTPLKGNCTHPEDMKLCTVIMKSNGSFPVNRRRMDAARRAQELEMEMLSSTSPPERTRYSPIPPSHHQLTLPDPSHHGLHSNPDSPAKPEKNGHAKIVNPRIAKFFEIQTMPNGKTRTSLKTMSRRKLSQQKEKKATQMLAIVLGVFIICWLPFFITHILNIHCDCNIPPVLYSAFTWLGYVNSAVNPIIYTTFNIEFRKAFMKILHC

## OC(CCCN1CC[C@@H]2[C@@H](C1)c1cc(F)ccc1N2c1ccc(F)cc1)c1ccc(F)cc1 (single isomer, unassigned) [δ, trans 8-fluoro-5-(p-fluorophenyl)-2-[4-hydroxy-4(p-fluorophenyl)butyl]-2,3,4,4a,5,9b-hexahydro-1H-pyrido[4,3-b]indole hydrochloride]
Amphetamine Stereotypy; [1]
  ED50, 1 Hr.: > 1000 micrograms/kilograms
  ED50, 24 Hrs.: 320-1000 micrograms/kilograms
Amphetamine Stereotypy; [2]
  ED50, 1 Hr.: > 10 mg/kg
  ED50, 24 Hrs.: > 10 mg/kg
Amphetamine Stereotypy; 5 hrs, Part D, enantiomers by synthesis of Example 21, 300 min
  ED50, 5 Hrs.: 5.7 mg/kg
Amphetamine Stereotypy; 48 hrs, Part D, enantiomers by synthesis of Example 21, 2880 min
  ED50, 48 Hrs.: > 10 mg/kg
Amphetamine Stereotypy; 72 hrs, Part D, enantiomers by synthesis of Example 21, 4320 min
  ED50, 72 Hrs.: > 10 mg/kg
Dopamine receptors
  IC50: 350 nM
